# Assay results: patent US9809623B2, “α4β7 peptide monomer and dimer antagonists” (Protagonist Therapeutics, Inc., priority 2014, dated 2017)
# Numbered stars: 1 amine (or outer) side, 2 acyl side, 3 side chain; on linkers, the order of the positions; unused ones are H or OH. Bridge positions count the residues as written; N and C are the ends. Square brackets hold non-standard residues; d marks the D form. Peptide text beside a SMILES is read from it. I, II: the chains in the order shown. Phe(3,4-Cl2) = N[C@@H](Cc1ccc(Cl)c(Cl)c1)C(=O)O; Phe(4-COOH) = N[C@@H](Cc1ccc(C(=O)O)cc1)C(=O)O; Phe(4-tBu) = CC(C)(C)c1ccc(C[C@H](N)C(=O)O)cc1; Phe(2,4-Cl2) = N[C@@H](Cc1ccc(Cl)cc1Cl)C(=O)O; Phe(2-CONH2) = NC(=O)c1ccccc1C[C@H](N)C(=O)O; Bip = N[C@@H](Cc1ccc(-c2ccccc2)cc1)C(=O)O; Diglycolyl = O=C(COCC(=O)[*:2])[*:1]; NMeR = CN[C@@H](CCCNC(=N)N)C(=O)O; Pen = CC(C)(S)[C@H](N)C(=O)O; Dab = NCC[C@H](N)C(=O)O
# Target: α4β7 (Homo sapiens, UniProt P13612+P26010)
# Test: α4β7-MAdCAM Cell Adhesion Assay (RPMI 8866 human cells)
# Type: cell-based
# Parameters: host or cells: RPMI 8866 human B lymphoblastoid cells
# Details: Table 3-B, Potency (α4β7); range classes; read-out: α4β7 cell (Hu) IC50
# How it was run: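 Adhesion read-out: MTT absorbance at 570 nm minus no-cell wells, after three washes. Plates coated with rh MAdCAM-1/Fc received peptide dilutions plus 200,000 RPMI 8866 cells in Mn2+ (1 mM)-supplemented DMEM, 0.1% BSA, HEPES pH 7, incubated 30-45 min, 37 °C.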
# Sequence of α4β7 (P13612 34-1032): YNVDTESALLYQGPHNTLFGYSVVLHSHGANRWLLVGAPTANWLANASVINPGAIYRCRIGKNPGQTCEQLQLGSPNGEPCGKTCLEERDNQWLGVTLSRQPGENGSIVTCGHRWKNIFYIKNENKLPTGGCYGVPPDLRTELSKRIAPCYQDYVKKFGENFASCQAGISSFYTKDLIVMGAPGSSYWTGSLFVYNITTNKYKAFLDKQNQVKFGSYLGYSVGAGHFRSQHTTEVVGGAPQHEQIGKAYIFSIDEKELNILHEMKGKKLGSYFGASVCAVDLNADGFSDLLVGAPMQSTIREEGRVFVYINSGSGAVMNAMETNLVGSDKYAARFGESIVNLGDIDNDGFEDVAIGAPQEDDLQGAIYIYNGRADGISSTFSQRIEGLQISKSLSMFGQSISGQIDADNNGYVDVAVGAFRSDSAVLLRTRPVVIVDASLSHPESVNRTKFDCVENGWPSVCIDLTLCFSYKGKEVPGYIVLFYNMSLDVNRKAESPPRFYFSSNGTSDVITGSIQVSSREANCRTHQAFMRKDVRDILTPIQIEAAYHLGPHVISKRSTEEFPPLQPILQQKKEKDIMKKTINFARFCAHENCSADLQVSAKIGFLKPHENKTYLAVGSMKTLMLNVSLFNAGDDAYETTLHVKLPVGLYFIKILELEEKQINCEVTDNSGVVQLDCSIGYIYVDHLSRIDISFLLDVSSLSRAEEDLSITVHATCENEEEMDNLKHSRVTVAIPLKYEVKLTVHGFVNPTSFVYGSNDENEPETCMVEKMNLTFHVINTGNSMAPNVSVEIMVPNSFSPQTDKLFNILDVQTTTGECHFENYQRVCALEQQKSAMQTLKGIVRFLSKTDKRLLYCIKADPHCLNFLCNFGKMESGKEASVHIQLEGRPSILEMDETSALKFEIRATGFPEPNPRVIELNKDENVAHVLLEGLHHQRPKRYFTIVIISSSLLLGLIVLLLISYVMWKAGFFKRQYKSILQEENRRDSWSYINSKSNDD
# Sequence of α4β7 (P26010 20-798): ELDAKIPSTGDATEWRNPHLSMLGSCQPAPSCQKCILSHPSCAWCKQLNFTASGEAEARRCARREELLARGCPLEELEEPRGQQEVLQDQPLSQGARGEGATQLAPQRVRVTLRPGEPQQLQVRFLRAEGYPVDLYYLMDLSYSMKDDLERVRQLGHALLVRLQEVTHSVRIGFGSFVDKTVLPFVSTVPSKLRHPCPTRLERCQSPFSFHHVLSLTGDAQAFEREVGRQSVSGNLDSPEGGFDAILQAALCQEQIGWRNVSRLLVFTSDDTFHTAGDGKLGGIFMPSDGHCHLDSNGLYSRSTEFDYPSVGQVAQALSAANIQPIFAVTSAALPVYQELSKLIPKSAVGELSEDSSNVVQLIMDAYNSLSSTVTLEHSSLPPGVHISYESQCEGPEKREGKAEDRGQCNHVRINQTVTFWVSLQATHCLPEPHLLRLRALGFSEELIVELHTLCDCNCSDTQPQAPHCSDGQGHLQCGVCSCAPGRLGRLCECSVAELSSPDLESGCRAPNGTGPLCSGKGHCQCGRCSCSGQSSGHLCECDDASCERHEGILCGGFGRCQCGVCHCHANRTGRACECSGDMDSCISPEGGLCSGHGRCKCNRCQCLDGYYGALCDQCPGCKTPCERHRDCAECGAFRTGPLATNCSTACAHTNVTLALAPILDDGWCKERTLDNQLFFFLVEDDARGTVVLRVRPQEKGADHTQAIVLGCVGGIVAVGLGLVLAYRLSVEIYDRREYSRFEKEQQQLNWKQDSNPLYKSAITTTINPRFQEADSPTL
row,Structure (SMILES),IC50 [µM]
1,"CC(=O)N[C@@H]1C(=O)N(C)[C@@H](CCCNC(=N)N)C(=O)N[C@@H](CO)C(=O)N[C@@H](CC(=O)O)C(=O)N[C@@H]([C@@H](C)O)C(=O)N[C@@H](CC(C)C)C(=O)N[C@H](C(=O)N[C@@H](Cc2c[nH]c3ccccc23)C(=O)N2CCC[C@@H]2C(=O)N[C@@H](CCCCNC(=O)COCC(=O)NCCCC[C@H](NC(=O)[C@H]2CCCN2C(=O)[C@H](Cc2c[nH]c3ccccc23)NC(=O)[C@H]2NC(=O)[C@H](CC(C)C)NC(=O)[C@H]([C@@H](C)O)NC(=O)[C@H](CC(=O)O)NC(=O)[C@H](CO)NC(=O)[C@H](CCCNC(=N)N)N(C)C(=O)[C@@H](NC(C)=O)C(C)(C)SSC2(C)C)C(N)=O)C(N)=O)C(C)(C)SSC1(C)C [compound 96] (I: Ac-[Pen][NMeR]SDTL[Pen]W[dP]K-NH2 / II: Ac-[Pen][NMeR]SDTL[Pen]W[dP]K-NH2; disulfide I:1-I:7, II:1-II:7; linker I:10-II:10 via Diglycolyl)",0.05 to 0.1
2,"CC(=O)N[C@@H]1C(=O)N(C)[C@@H](CCCNC(=N)N)C(=O)N[C@@H](CO)C(=O)N[C@@H](CC(=O)O)C(=O)N[C@@H]([C@@H](C)O)C(=O)N[C@@H](CC(C)C)C(=O)N[C@H](C(=O)N[C@@H](Cc2c[nH]c3ccccc23)C(=O)N[C@@H](CCC(=O)O)C(=O)N[C@@H](CCNC(=O)COCC(=O)NCC[C@H](NC(=O)[C@H](CCC(=O)O)NC(=O)[C@H](Cc2c[nH]c3ccccc23)NC(=O)[C@H]2NC(=O)[C@H](CC(C)C)NC(=O)[C@H]([C@@H](C)O)NC(=O)[C@H](CC(=O)O)NC(=O)[C@H](CO)NC(=O)[C@H](CCCNC(=N)N)N(C)C(=O)[C@@H](NC(C)=O)C(C)(C)SSC2(C)C)C(N)=O)C(N)=O)C(C)(C)SSC1(C)C [compound 97] (I: Ac-[Pen][NMeR]SDTL[Pen]WE[Dab]-NH2 / II: Ac-[Pen][NMeR]SDTL[Pen]WE[Dab]-NH2; disulfide I:1-I:7, II:1-II:7; linker I:10-II:10 via Diglycolyl)",< 0.01
3,"CC(=O)N[C@@H]1C(=O)N(C)[C@@H](CCCNC(=N)N)C(=O)N[C@@H](CO)C(=O)N[C@@H](CC(=O)O)C(=O)N[C@@H]([C@@H](C)O)C(=O)N[C@@H](CC(C)C)C(=O)N[C@H](C(=O)N[C@@H](Cc2ccccc2C(N)=O)C(=O)N[C@H](CCC(=O)O)C(=O)N[C@H](CCCCNC(=O)COCC(=O)NCCCC[C@@H](NC(=O)[C@@H](CCC(=O)O)NC(=O)[C@H](Cc2ccccc2C(N)=O)NC(=O)[C@H]2NC(=O)[C@H](CC(C)C)NC(=O)[C@H]([C@@H](C)O)NC(=O)[C@H](CC(=O)O)NC(=O)[C@H](CO)NC(=O)[C@H](CCCNC(=N)N)N(C)C(=O)[C@@H](NC(C)=O)C(C)(C)SSC2(C)C)C(N)=O)C(N)=O)C(C)(C)SSC1(C)C [compound 98] (I: Ac-[Pen][NMeR]SDTL[Pen][Phe(2-CONH2)][dE][dK]-NH2 / II: Ac-[Pen][NMeR]SDTL[Pen][Phe(2-CONH2)][dE][dK]-NH2; disulfide I:1-I:7, II:1-II:7; linker I:10-II:10 via Diglycolyl)",0.05 to 0.1
4,"CC(=O)N[C@@H]1C(=O)N(C)[C@@H](CCCNC(=N)N)C(=O)N[C@@H](CO)C(=O)N[C@@H](CC(=O)O)C(=O)N[C@@H]([C@@H](C)O)C(=O)N[C@@H](CC(C)C)C(=O)N[C@H](C(=O)N[C@@H](Cc2ccc(C(=O)O)cc2)C(=O)N[C@H](CCC(=O)O)C(=O)N[C@H](CCCCNC(=O)COCC(=O)NCCCC[C@@H](NC(=O)[C@@H](CCC(=O)O)NC(=O)[C@H](Cc2ccc(C(=O)O)cc2)NC(=O)[C@H]2NC(=O)[C@H](CC(C)C)NC(=O)[C@H]([C@@H](C)O)NC(=O)[C@H](CC(=O)O)NC(=O)[C@H](CO)NC(=O)[C@H](CCCNC(=N)N)N(C)C(=O)[C@@H](NC(C)=O)C(C)(C)SSC2(C)C)C(N)=O)C(N)=O)C(C)(C)SSC1(C)C [compound 100] (I: Ac-[Pen][NMeR]SDTL[Pen][Phe(4-COOH)][dE][dK]-NH2 / II: Ac-[Pen][NMeR]SDTL[Pen][Phe(4-COOH)][dE][dK]-NH2; disulfide I:1-I:7, II:1-II:7; linker I:10-II:10 via Diglycolyl)",< 0.01
5,"CC(=O)N[C@@H]1C(=O)N(C)[C@@H](CCCNC(=N)N)C(=O)N[C@@H](CO)C(=O)N[C@@H](CC(=O)O)C(=O)N[C@@H]([C@@H](C)O)C(=O)N[C@@H](CC(C)C)C(=O)N[C@H](C(=O)N[C@@H](Cc2ccc(Cl)cc2Cl)C(=O)N[C@H](CCC(=O)O)C(=O)N[C@H](CCCCNC(=O)COCC(=O)NCCCC[C@@H](NC(=O)[C@@H](CCC(=O)O)NC(=O)[C@H](Cc2ccc(Cl)cc2Cl)NC(=O)[C@H]2NC(=O)[C@H](CC(C)C)NC(=O)[C@H]([C@@H](C)O)NC(=O)[C@H](CC(=O)O)NC(=O)[C@H](CO)NC(=O)[C@H](CCCNC(=N)N)N(C)C(=O)[C@@H](NC(C)=O)C(C)(C)SSC2(C)C)C(N)=O)C(N)=O)C(C)(C)SSC1(C)C [compound 101] (I: Ac-[Pen][NMeR]SDTL[Pen][Phe(2,4-Cl2)][dE][dK]-NH2 / II: Ac-[Pen][NMeR]SDTL[Pen][Phe(2,4-Cl2)][dE][dK]-NH2; disulfide I:1-I:7, II:1-II:7; linker I:10-II:10 via Diglycolyl)",0.05 to 0.1
6,"CC(=O)N[C@@H]1C(=O)N(C)[C@@H](CCCNC(=N)N)C(=O)N[C@@H](CO)C(=O)N[C@@H](CC(=O)O)C(=O)N[C@@H]([C@@H](C)O)C(=O)N[C@@H](CC(C)C)C(=O)N[C@H](C(=O)N[C@@H](Cc2ccc(Cl)c(Cl)c2)C(=O)N[C@H](CCC(=O)O)C(=O)N[C@H](CCCCNC(=O)COCC(=O)NCCCC[C@@H](NC(=O)[C@@H](CCC(=O)O)NC(=O)[C@H](Cc2ccc(Cl)c(Cl)c2)NC(=O)[C@H]2NC(=O)[C@H](CC(C)C)NC(=O)[C@H]([C@@H](C)O)NC(=O)[C@H](CC(=O)O)NC(=O)[C@H](CO)NC(=O)[C@H](CCCNC(=N)N)N(C)C(=O)[C@@H](NC(C)=O)C(C)(C)SSC2(C)C)C(N)=O)C(N)=O)C(C)(C)SSC1(C)C [compound 102] (I: Ac-[Pen][NMeR]SDTL[Pen][Phe(3,4-Cl2)][dE][dK]-NH2 / II: Ac-[Pen][NMeR]SDTL[Pen][Phe(3,4-Cl2)][dE][dK]-NH2; disulfide I:1-I:7, II:1-II:7; linker I:10-II:10 via Diglycolyl)",0.1 to 0.5
7,"COc1ccc(C[C@H](NC(=O)[C@H]2NC(=O)[C@H](CC(C)C)NC(=O)[C@H]([C@@H](C)O)NC(=O)[C@H](CC(=O)O)NC(=O)[C@H](CO)NC(=O)[C@H](CCCNC(=N)N)N(C)C(=O)[C@@H](NC(C)=O)C(C)(C)SSC2(C)C)C(=O)N[C@H](CCC(=O)O)C(=O)N[C@H](CCCCNC(=O)COCC(=O)NCCCC[C@@H](NC(=O)[C@@H](CCC(=O)O)NC(=O)[C@H](Cc2ccc(OC)cc2)NC(=O)[C@H]2NC(=O)[C@H](CC(C)C)NC(=O)[C@H]([C@@H](C)O)NC(=O)[C@H](CC(=O)O)NC(=O)[C@H](CO)NC(=O)[C@H](CCCNC(=N)N)N(C)C(=O)[C@@H](NC(C)=O)C(C)(C)SSC2(C)C)C(N)=O)C(N)=O)cc1 [compound 103] (I: Ac-[Pen][NMeR]SDTL[Pen]Y(Me)[dE][dK]-NH2 / II: Ac-[Pen][NMeR]SDTL[Pen]Y(Me)[dE][dK]-NH2; disulfide I:1-I:7, II:1-II:7; linker I:10-II:10 via Diglycolyl)",0.025 to 0.05
8,"CC(=O)N[C@@H]1C(=O)N(C)[C@@H](CCCNC(=N)N)C(=O)N[C@@H](CO)C(=O)N[C@@H](CC(=O)O)C(=O)N[C@@H]([C@@H](C)O)C(=O)N[C@@H](CC(C)C)C(=O)N[C@H](C(=O)N[C@@H](Cc2c[nH]c3ccccc23)C(=O)N[C@@H](Cc2ccc(C(=O)O)cc2)C(=O)N[C@H](CCCCNC(=O)COCC(=O)NCCCC[C@@H](NC(=O)[C@H](Cc2ccc(C(=O)O)cc2)NC(=O)[C@H](Cc2c[nH]c3ccccc23)NC(=O)[C@H]2NC(=O)[C@H](CC(C)C)NC(=O)[C@H]([C@@H](C)O)NC(=O)[C@H](CC(=O)O)NC(=O)[C@H](CO)NC(=O)[C@H](CCCNC(=N)N)N(C)C(=O)[C@@H](NC(C)=O)C(C)(C)SSC2(C)C)C(N)=O)C(N)=O)C(C)(C)SSC1(C)C [compound 105] (I: Ac-[Pen][NMeR]SDTL[Pen]W[Phe(4-COOH)][dK]-NH2 / II: Ac-[Pen][NMeR]SDTL[Pen]W[Phe(4-COOH)][dK]-NH2; disulfide I:1-I:7, II:1-II:7; linker I:10-II:10 via Diglycolyl)",0.05 to 0.1
9,"CC(=O)N[C@@H]1C(=O)N(C)[C@@H](CCCNC(=N)N)C(=O)N[C@@H](CO)C(=O)N[C@@H](CC(=O)O)C(=O)N[C@@H]([C@@H](C)O)C(=O)N[C@@H](CC(C)C)C(=O)N[C@H](C(=O)N[C@@H](Cc2ccc(C(C)(C)C)cc2)C(=O)N[C@H](CCC(=O)O)C(=O)N[C@H](CCCCNC(=O)COCC(=O)NCCCC[C@@H](NC(=O)[C@@H](CCC(=O)O)NC(=O)[C@H](Cc2ccc(C(C)(C)C)cc2)NC(=O)[C@H]2NC(=O)[C@H](CC(C)C)NC(=O)[C@H]([C@@H](C)O)NC(=O)[C@H](CC(=O)O)NC(=O)[C@H](CO)NC(=O)[C@H](CCCNC(=N)N)N(C)C(=O)[C@@H](NC(C)=O)C(C)(C)SSC2(C)C)C(N)=O)C(N)=O)C(C)(C)SSC1(C)C [compound 106] (I: Ac-[Pen][NMeR]SDTL[Pen][Phe(4-tBu)][dE][dK]-NH2 / II: Ac-[Pen][NMeR]SDTL[Pen][Phe(4-tBu)][dE][dK]-NH2; disulfide I:1-I:7, II:1-II:7; linker I:10-II:10 via Diglycolyl)",< 0.01
10,"CC(=O)N[C@@H]1C(=O)N(C)[C@@H](CCCNC(=N)N)C(=O)N[C@@H](CO)C(=O)N[C@@H](CC(=O)O)C(=O)N[C@@H]([C@@H](C)O)C(=O)N[C@@H](CC(C)C)C(=O)N[C@H](C(=O)N[C@@H](Cc2ccc(-c3ccccc3)cc2)C(=O)N[C@H](CCC(=O)O)C(=O)N[C@H](CCCCNC(=O)COCC(=O)NCCCC[C@@H](NC(=O)[C@@H](CCC(=O)O)NC(=O)[C@H](Cc2ccc(-c3ccccc3)cc2)NC(=O)[C@H]2NC(=O)[C@H](CC(C)C)NC(=O)[C@H]([C@@H](C)O)NC(=O)[C@H](CC(=O)O)NC(=O)[C@H](CO)NC(=O)[C@H](CCCNC(=N)N)N(C)C(=O)[C@@H](NC(C)=O)C(C)(C)SSC2(C)C)C(N)=O)C(N)=O)C(C)(C)SSC1(C)C [compound 108] (I: Ac-[Pen][NMeR]SDTL[Pen][Bip][dE][dK]-NH2 / II: Ac-[Pen][NMeR]SDTL[Pen][Bip][dE][dK]-NH2; disulfide I:1-I:7, II:1-II:7; linker I:10-II:10 via Diglycolyl)",0.01 to 0.025
